This test concerns the target Lysine--tRNA ligase (Plasmodium falciparum (isolate 3D7), UniProt Q8IDJ8). As to the kind of experiment: Pf-KRS-1 (Lysyl-RNA Synthetase-1, KRS-1, cytosolic KRS) from Plasmodium falciparum. Inhibitor assay, 384 well plate, luminescence read. In kind it is functional.
Chain of Lysine--tRNA ligase (Q8IDJ8 whole entry): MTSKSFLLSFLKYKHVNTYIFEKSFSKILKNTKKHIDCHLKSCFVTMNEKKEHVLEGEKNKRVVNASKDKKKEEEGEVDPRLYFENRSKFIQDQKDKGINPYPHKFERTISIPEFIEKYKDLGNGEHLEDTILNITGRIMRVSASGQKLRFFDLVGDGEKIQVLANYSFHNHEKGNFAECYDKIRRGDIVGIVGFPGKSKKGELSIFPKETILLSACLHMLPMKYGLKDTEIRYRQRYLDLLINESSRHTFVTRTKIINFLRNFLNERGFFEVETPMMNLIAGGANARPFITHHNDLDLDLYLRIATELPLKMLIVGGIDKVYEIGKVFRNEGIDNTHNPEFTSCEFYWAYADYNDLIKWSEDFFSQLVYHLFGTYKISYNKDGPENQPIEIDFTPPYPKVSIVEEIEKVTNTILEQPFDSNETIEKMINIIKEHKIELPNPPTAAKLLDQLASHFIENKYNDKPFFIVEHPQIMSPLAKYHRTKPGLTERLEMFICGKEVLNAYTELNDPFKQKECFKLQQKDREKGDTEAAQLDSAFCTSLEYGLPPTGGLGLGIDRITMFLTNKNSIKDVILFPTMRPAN
As for `Cc1cc(C(=O)N2CCCC3(COCCN(CCN(C)C)C3)C2)no1` (configuration not stated), the 50% inhibitory concentration (IC50) (in general, the midpoint of a concentration-inhibition curve) was greater than 50.1 µM.

The compound `CCC1CCC(CNC(=O)c2c[nH]c(=O)c(Cl)c2)CC1` (configuration not stated) had an IC50 greater than 50.1 µM. For `Cc1ccnc(NCCNC(=O)C2CC3(CCNCC3)CN2C)c1` (configuration not stated) the value was greater than 50.1 µM. For `CSc1cccc(CN(C)C(=O)Nc2nc(C)n(C)n2)c1` the value was greater than 50.1 µM; for `CN1C(=O)CC2(CCN(S(=O)(=O)C3CC3)CC2)c2ccccc21`, greater than 50.1 µM; for `Cc1ccc(C(=O)NCc2cc(F)ccc2N2CCCN(C)CC2)o1`, greater than 50.1 µM.

`CCc1nc(CN2CCOC(CN(CC)c3cccnn3)C2)cs1` (configuration not stated): the IC50 is greater than 50.1 µM. In the case of `O=C1COc2ccccc2N1CCCn1cnnn1` it was greater than 50.1 µM; in that of `Cc1noc(C2CCCN(C(=O)c3cc(Cl)ccc3F)C2)n1` (configuration not stated), greater than 50.1 µM. `O=C(O)c1c(-c2ccoc2)ncc2c1CCN(C1CCOC1)C2` (configuration not stated) had an IC50 greater than 50.1 µM. For `COCCCN1CC2(CCCCN2C(=O)C2CCCCC2)CC1=O` (configuration not stated) the value was greater than 50.1 µM.

Turning to `O=C(NCC1(O)CCCCC1)c1coc(COc2cccc(F)c2)n1`, the IC50 is greater than 50.1 µM. For `CCCc1ccc(CN2CCN(C(=O)CC(C)C)[C@@H]3CS(=O)(=O)C[C@@H]32)o1` the value was greater than 50.1 µM; for `O=c1ccc2c(n1Cc1cccnc1)CCC(NCc1cccnc1)C2` (configuration not stated), greater than 50.1 µM. For `Cc1cc(C)c2c(NCC3(O)CCCCC3)ncnc2n1` the value was greater than 50.1 µM; for `CC(=O)c1cc(CC(=O)N2CCN(S(=O)(=O)c3ccccc3)CC2)cs1`, greater than 50.1 µM. For `COc1c(C)cnc(CN(C)C(=O)c2ccccc2O)c1C` the value was greater than 50.1 µM; for `O=C(NCCc1ccco1)Nc1cc(C(F)(F)F)c[nH]c1=O`, greater than 50.1 µM. Take `O=C(c1nc(=O)[nH][nH]1)N1CCC2(CCCCC2)C1`: the IC50 is greater than 50.1 µM. Compound `COCCCN1CCCC12CCN(Cc1cccnc1OC)CC2` showed an IC50 greater than 50.1 µM. For `COc1c(C)cnc(CN(C)C(=O)c2ccccc2F)c1C` the value was greater than 50.1 µM.

With `Cc1nc(N(C)C)ncc1C(=O)NCCc1csc(-c2ccncc2)n1`, the IC50 was greater than 50.1 µM.

The compound `CN1C[C@@H]2CC[C@H](CC1=O)N2C(=O)c1ccc(-c2ccccc2)[nH]c1=O` had an IC50 greater than 50.1 µM. Take `O=C(CC1COCCN1)N1CCC(N2CCc3ccccc3C2)CC1` (configuration not stated): the IC50 was greater than 50.1 µM. For the compound `Cc1nnc(NCCn2nc(C)c(Cl)c2C)o1`, the IC50 is greater than 50.1 µM. In the case of `c1ncc2c(n1)CN(CC1CCCCO1)CC2` (configuration not stated) it was 32.7 µM; in that of `Cc1cccc2c1CCN(c1cc(N3CCCC3CO)ncn1)C2` (configuration not stated), greater than 50.1 µM. For `O=C([C@H]1CCCO1)N1CCc2ncnc(NC3CC3)c2CC1`, the IC50 is greater than 50.1 µM. For `COc1cc(C2CC(=O)Nc3c2nc2n3CCCC2)cc(OC)c1O` (configuration not stated) the value was greater than 50.1 µM; for `CC(Nc1ccn(Cc2ccccn2)n1)C(=O)NC(C)(C)C` (configuration not stated), greater than 50.1 µM; for `CCN1CCC(N2CCN(c3cc(-c4nc(C)no4)ccn3)CC2)CC1`, greater than 50.1 µM. The compound `COc1ccc(NC(=O)N2CCCC2c2ccncc2)cn1` (configuration not stated) showed an IC50 greater than 50.1 µM. In the case of `O=C(Cc1ccsc1)N1CCCC(c2n[nH]c3ncccc23)C1` (configuration not stated) it was greater than 50.1 µM; in that of `Cc1cnn(CC2CCCN2C(=O)c2cccc3c2OCO3)c1` (configuration not stated), greater than 50.1 µM; in that of `COc1cccc(C(=O)N(C)Cc2ncc(C)c(OC)c2C)c1OC`, greater than 50.1 µM. For `CC(C)SCCn1ccc2[nH]c(=O)c(C#N)cc2c1=O` the value was greater than 50.1 µM; for `O=C(CCNC(=O)c1ccoc1)Nc1cc(F)cc(F)c1`, greater than 50.1 µM. In the case of `Cc1nc(C)c(C)c(N(C)CCCc2nccn2C)n1` it was greater than 50.1 µM; in that of `CSCCC(O)C(=O)N1CCCN(Cc2cccnc2)CC1` (configuration not stated), greater than 50.1 µM. Compound `c1ccc(SCCN2CCCC(Cn3ccnc3)C2)cc1` (configuration not stated) showed an IC50 greater than 50.1 µM. For `COC(=O)c1ccc2ccn(CC3CCCCO3)c(=O)c2c1` (configuration not stated) the value was 38.2 µM; for `COc1ccc(-n2nnc(C(=O)NCC3CCCCC3)n2)cc1`, greater than 50.1 µM. In the case of `COc1ccccc1N1CCC(N2CCOCC(CO)C2)CC1` (configuration not stated) it was greater than 50.1 µM. For `O=C(O)c1cc(-c2ccncc2F)cc(S(=O)(=O)N2CCCCCC2)c1` the value was greater than 50.1 µM; for `O=C(NCC1(O)CCCC1)c1ccc2nsnc2c1`, greater than 50.1 µM. Compound `O=C(Cc1ccc(Cl)s1)Nc1ccc2c(c1)C(=O)NC2=O` showed an IC50 greater than 50.1 µM.

In turn, `COc1ccc(C(=O)N2CCO[C@H]3[C@@H](OCC4CC4)CC[C@@H]32)cc1F` gave an IC50 greater than 50.1 µM.

Regarding `CS(=O)(=O)N1C[C@H](C(=O)Nc2cnccn2)C[C@H]2OCC[C@H]21`, the IC50 is greater than 50.1 µM. `CO[C@H]1CC[C@H]2[C@H]1OCCN2C(=O)CC1=CCCCC1` showed an IC50 greater than 50.1 µM.

Consider `COc1cc(NC(=O)N(C)Cc2ccc(Br)o2)ncn1`, for which the IC50 is greater than 50.1 µM. Take `Cn1c(CN2CCCc3cc(F)cc(F)c32)cc(=O)n(C)c1=O`: the IC50 is greater than 50.1 µM. For `COc1c(C)cnc(CN(C)C(=O)c2cccnc2N(C)C)c1C` the value was greater than 50.1 µM.

`CN1CC(c2ccccc2)CC12CCN(C(=O)c1cccnc1)CC2` (configuration not stated) showed an IC50 greater than 50.1 µM. In the case of `Cc1cnc(N2CCN(C)c3ncccc3C2)nc1` it was greater than 50.1 µM; in that of `O=C(NCc1cccs1)NCC(O)(c1cccs1)C1CC1` (configuration not stated), greater than 50.1 µM; in that of `CSc1cc2c(cc1NC(=O)NCC(C)(C)C(N)=O)OCCO2`, greater than 50.1 µM. In the case of `COc1c(F)cc(-c2cn(CCn3c(C)cc(C)nc3=O)nn2)cc1Cl` it was greater than 50.1 µM; in that of `Cc1cc(CN(C)C(=O)c2cccc(N3CCCC3=O)c2)no1`, greater than 50.1 µM; in that of `COc1ccccc1CNc1ccc2nncn2n1`, greater than 50.1 µM. In the case of `CCOC(=O)C1CCCN(Cc2cc(C#N)n(C)c2C)C1` (configuration not stated) it was greater than 50.1 µM; in that of `COC(=O)c1ccc2ccn(CC3COCCO3)c(=O)c2c1` (configuration not stated), greater than 50.1 µM. With `CC(C)(C)c1cc(CN2CCOC(CCc3ccccc3)C2)n[nH]1` (configuration not stated), the IC50 is greater than 50.1 µM. In the case of `O=c1[nH]c2c(c(=O)n1C1CCCCC1)CCC2NCCc1ccccc1` (configuration not stated) it was 1.75 µM; in that of `CCCS(=O)(=O)N1CCOC2(COCCN(C(C)=O)C2)C1` (configuration not stated), greater than 50.1 µM; in that of `CN(C)c1cc2c(nn1)CCN(C(=O)C1Cc3ccccc3S1)C2` (configuration not stated), greater than 50.1 µM. In the case of `CCOc1ccc(CC(CNC(=O)c2ccc(C)o2)C(N)=O)cc1` (configuration not stated) it was greater than 50.1 µM. In the case of `CCn1ncc2c1CCCC2NCc1ccc(OC)c(C)c1` (configuration not stated) it was greater than 50.1 µM; in that of `O=C(Nc1cccnc1)[C@H]1C[C@@H]2CCN(c3nncs3)C[C@H]2O1`, greater than 50.1 µM; in that of `CN(Cc1cccs1)C1CCC[C@@H]2CN(C(=O)c3cccn3C)C[C@H]12` (some centres not stated), greater than 50.1 µM. Compound `O=C(c1ccccn1)N1CCCN(Cc2nnc(C3CC3)o2)CC1` showed an IC50 greater than 50.1 µM. For `N#CCc1ccc(OCC(=O)N2CCCC(n3cccn3)C2)cc1` (configuration not stated) the value was greater than 50.1 µM.

Turning to `O=C1CC(c2ccc(O)cc2)c2c(c(C(=O)O)cn2-c2ccccc2)N1` (configuration not stated), the IC50 was greater than 50.1 µM. In the case of `CSCCCN1CCCC(Cn2ccnc2)C1` (configuration not stated) it was greater than 50.1 µM; in that of `CC(C)C(=O)NC1CCN(c2cccc(OC(F)(F)F)c2)C1=O` (configuration not stated), greater than 50.1 µM; in that of `COc1cc(CNC(C)Cn2ccnc2)cc2c1OCO2` (configuration not stated), greater than 50.1 µM. For `CN(C)Cc1cnc2n1CCN(C(=O)Cc1ccc(F)cc1)CC2` the value was greater than 50.1 µM; for `CCc1c(C)[nH]c(C(C)(N)CC)nc1=O` (configuration not stated), greater than 50.1 µM.

The values are drawn from ChEMBL document CHEMBL3988442, “University of Dundee, Small-Polar-MMV Screening Library” (2021).
